Test [1] has as its system experimental asthma in rats. The test can be described thus: Inhibition of experimental asthma in rats. The class given is in vivo, Wistar rats. The conditions noted are these: Rattus norvegicus, po; for inhibition in vivo at 1 mg/kg: other dosage/kg: 1 mg. The procedure: (§1) Antiserum was prepared according to the method described in J. Immunol., 106, 1002 (1971). The titer (or highest effective dilution which gave a mean 48 hours PCA response of 5 mm in diameter in a rat) of the antiserum used was 1:200.
Wistar rats were passively sensitized by injection into caudal vein of 2.0ml/animal antiserum. After 24 hours, anaphylactic airway contraction caused by administration of antigen was measured by a modified Konzett and Roessler method. Briefly, the animal was fixed at dorsal position under urethane (1.5 g/kg, i.p.) anesthetization and connected with a respirator (Harvard Model 683, respiratory volume: 3-5 ml/respiration; respiratory rate: 72/minute) via an incised tracheal cannula. […] Oxatomide was administered two hours before the test, which is the optimal conditions according to Nippon Yakurigaku Zasshi (Japanese Journal of Pharmacology), 80, 261 (1982), and the other test drugs were orally administered at a rate of 0.2 ml/100 g body weight one hour before the test using a gastric tube. At the end of measurement, the trachea was blocked with a Kocher clamp and the measured values were expressed in percent taking the value at blockage as the maximum contraction (100%).

Test [2] relates to passive cutaneous anaphylaxis (PCA) reaction in rats. The test can be described thus: Inhibition of PCA reaction in rats. Conditions: Rattus norvegicus, po; for inhibition in vivo at 10 mg/kg / inhibition in vivo at 3 mg/kg: read-out: Inhibition of PCA in rat. It counts as in vivo, Wistar rats. The protocol: as §1
Wistar rats were passively sensitized by intracutaneous injection of 0.05 ml antiserum diluted 75 times with physiological saline at two sheared sites of dorsal skin. After 48 hours, 0.5ml/animal of 1% Evans blue-physiological saline containing 2mg ovalbumin was administered into caudal vein to elicit the reaction. After 30 minutes, rats were sacrificed by decapitative bleeding and the dorsal skin was flayed. Dye stuff exuded at the reaction site was extracted according to the method described in Microbiol. Immunol., 22, 89 (1978). Briefly, two circular pieces of sensitized areas and one circular piece of unsensitized area (as the control) were punched at 1.8 cm diameter. The disks were placed in test tubes and treated overnight with 1 ml 1N-KOH at 37° C. Then 9ml 0.6N-H3 PO4 /acetone (5/13) was added and the mixture was thoroughly stirred and centrifuged (3000 rpm, 10 minutes). The supernatant was assayed for absorption at 620 nm. The amount of dye stuff was calculated from the standard curve previously prepared with known amounts of Evance blue. The conditions of sensitization and the amount of antigen were based on Nippon Yakurigaku Zasshi (Japanese Journal of Pharmacology),80, 261 (1982).
Test drugs and Oxatomide as a positive control were administered orally before 1 hour of elicitation through a gastric tube at 1 ml/200g body weight. In the test, groups of 6 to 7 animals and groups of 8 to 9 animals were used for test drugs and control, respectively.

Setting [3] is: 10 mg/kg, read-out: Inhibition of Experimental Asthma in rat.
The mark [4] stands for this setting: read-out: Inhibition of Experimental Asthma in rat.

Like-named read-outs stand apart in the source and are kept apart here.

`Cc1ccc2c(CCN3CCC(c4c[nH]c5ccccc45)CC3)cc(=O)[nH]c2c1` [III-25, 4-[2-[4-(1H-indol-3-yl)-1-piperidinyl]ethyl]-7-methyl-2-(1H)-quinolinone]: the inhibition in vivo at 10 mg/kg was determined as 68.6% in test [1] (setting [3]) and 29.4% in test [2] (10 mg/kg).
For `O=c1ccc2cc(Cl)ccc2n1CCCN1CCC(c2c[nH]c3ccccc23)CC1` [VII-1, 1-[3-[4-(1H-indol-3-yl)-piperidinyl]propyl]-6-chloro-2-(1H)-quinolinone] the same measures were 40.3% and 12.1%.
The like results for `Nc1ccc2[nH]c(=O)cc(CCN3CCC(c4c[nH]c5ccccc45)CC3)c2c1` [III-20, 6-amino-4-[2-[4-(1H-indol-3-yl)-1-piperidinyl]ethyl]-2(1H)-quinolinone] were, in that order, 89.2% and 18.5%.
Consider `O=c1ccc2ccccc2n1CCCN1CCC(c2c[nH]c3ccccc23)CC1` [VII-3, 1-[3-[4-(1H-indol-3-yl)-1-piperidinyl]propyl]-2(1H)-quinolinone], for which the inhibition in vivo at 10 mg/kg in test [1] (setting [3]) was found to be 76.7%; in test [2] (10 mg/kg), 27.2%.
In the case of `O=c1cc(-c2ccc(Cl)cc2)c2ccccc2n1CCCN1CCC(c2c[nH]c3ccccc23)CC1` [VII-6, 4-(4-chlorophenyl)-l-[3-[4-(1H-indol-3-yl)-1-piperidinyl]propyl]-2(1H)-quinolinone], the figures for the inhibition in vivo at 10 mg/kg in test [1] (setting [3]) and in test [2] (10 mg/kg) were 19.3% and 9.4%, respectively.
Consider `O=c1cc(CCCCCN2CCC(c3c[nH]c4ccccc34)CC2)c2ccccc2[nH]1` [III-5, 4-[5-[4-(1H-indol-3-yl)-1-piperidinyl]pentyl]-2(1H)-quinolinone], for which the inhibition in vivo at 10 mg/kg in test [1] (setting [3]) stood at 8.87%; in test [2] (10 mg/kg), 66.5%.
Consider `O=c1cc(CN2CCN(C(c3ccccc3)c3ccccc3)CC2)c2ccccc2[nH]1` [III-6, 4-[[4-(diphenylmethyl)-1-piperazinyl]methyl]-2(1H)-quinolinone], for which the inhibition in vivo at 10 mg/kg in test [1] (setting [3]) was determined as 57.2%; in test [2] (10 mg/kg) it was 9.7%.
The like results for `O=c1cc(CCCCN2CCC(c3c[nH]c4ccccc34)CC2)c2ccccc2[nH]1` [III-4, 4-[4-[4-(1H-indol-3-yl)-1-piperidinyl]butyl]-2(1H)-quinolinone] were, in that order, 28.7% and 12.8%.
As to `O=C1CC(CCN2CCC(c3c[nH]c4ccccc34)CC2)c2ccccc2N1` (stereo not shown) [IV-1, 3,4-dihydro-4-[2-[4-(1H-indol-3-yl)-1-piperidinyl]ethyl]-2(1H)-quinolinone], the values for the inhibition in vivo at 10 mg/kg in test [1] (setting [3]) and in test [2] (10 mg/kg) were 80.1% and 95.9%, respectively. In addition, the inhibition in vivo at 1 mg/kg in test [1] is 26.4%. Also, the inhibition in vivo at 3 mg/kg in test [2] (other dosage/kg: 3 mg) turned out to be 65.9%.
Consider `O=c1cc(CCCN2CCC(OC(c3ccccc3)c3ccccc3)CC2)c2ccccc2[nH]1` [III-12, 4-[3-[4-(diphenylmethoxy)-1-piperidinyl]propyl]-2(1H)-quinolinone], for which the figures for the inhibition in vivo at 10 mg/kg in test [1] (setting [3]) and in test [2] (10 mg/kg) were 12.1% and 73.6%, respectively.
The like results for `O=C1Cc2ccccc2C(=C2CCN(CCc3cc(=O)[nH]c4ccccc34)CC2)c2ccsc21` [III-14, 4,9-dihydro-4-[1-[2-(1,2-dihydro-2-oxo-4-quinolyl)ethyl]-4-piperidinylidene]-10H-benzo[4, 5]cyclohepta[1,2-b]thiophen-10-one] were, in that order, 44.8% and 23.1%.
Turning to `O=c1cc(CCN2CCC(c3c[nH]c4ccccc34)CC2)c2ccc(Br)cc2[nH]1` [III-18, 7-bromo-4-[2-[4-(1H-indol-3-yl)-1-piperidinyl]ethyl]-2(1H)-quinolinone], the inhibition in vivo at 10 mg/kg is 84.2% in test [1] (setting [3]) and 45.2% in test [2] (10 mg/kg). Besides, the inhibition in vivo at 1 mg/kg in test [1] was found to be 62.6%.
As to `Cc1ccc2c(ccc(=O)n2CCCN2CCC(c3c[nH]c4ccccc34)CC2)c1` [VII-2, 1-[3-[4-(1H-indol-3-yl)-1-piperidinyl]propyl]-6-methyl-2(1H)-quinolinone], the figures for the inhibition in vivo at 10 mg/kg in test [1] (setting [3]) and in test [2] (10 mg/kg) were 24.3% and 41.9%, respectively.
The like results for `Cc1cc(=O)n(CCCN2CCC(c3c[nH]c4ccccc34)CC2)c2ccccc12` [VII-4, 1-[3-[4-(1H-indol-3-yl)-1-piperidinyl]propyl]-4-methyl-2-(1H)-quinolinone] were, in that order, 10.8% and 89.2%.
For `O=C1Cc2ccccc2C(=C2CCN(Cc3cc(=O)[nH]c4ccccc34)CC2)c2ccsc21` [III-13, 4,9-dihydro-4-[1-[(1,2-dihydro-2-oxo-4-quinolyl)methyl]-4-piperidinylidene]-10H-benzo[4, 5]cyclohepta[1,2-b]thiophen-10-one] the same measures were 42.9% and 24.2%.
`Cc1cccc2c(CCN3CCC(c4c[nH]c5ccccc45)CC3)cc(=O)[nH]c12` [III-24, 4-[2-[4-(1H-indol-3-yl)-1-piperidinyl]ethyl]-8-methyl-2-(1H)-quinolinone]: the inhibition in vivo at 10 mg/kg is 73.8% in test [1] (setting [3]) and 102% in test [2] (10 mg/kg). For the same compound, the inhibition in vivo at 1 mg/kg in test [1] was found to be 95.7%.
For the compound `O=c1cc(CCCN2CCN(C(c3ccccc3)c3ccccc3)CC2)c2ccccc2[nH]1` [III-8, 4-[3-[4-(diphenylmethyl)-1-piperazinyl]propyl]-2(1H)-quinolinone], the figures for the inhibition in vivo at 10 mg/kg in test [1] (setting [3]) and in test [2] (10 mg/kg) were 17.1% and 73.9%, respectively.
The like results for `O=c1cc(CCN2CCC(OC(c3ccccc3)c3ccccc3)CC2)c2ccccc2[nH]1` [III-11, 4-[2-[4-(diphenylmethoxy)-1-piperidinyl]ethyl]-2(1H)-quinolinone] were, in that order, 35.6% and 63.6%.
With `Cc1ccc2[nH]c(=O)cc(CCN3CCC(c4c[nH]c5ccccc45)CC3)c2c1` [III-23, 4-[2-[4-(1H-indol-3-yl)-1-piperidinyl]ethyl]-6-methyl-2(1H)-quinolinone], the inhibition in vivo at 10 mg/kg in test [1] (setting [3]) amounted to 95.5%; in test [2] (10 mg/kg), 62%. For the same compound, the inhibition in vivo at 0.1 mg/kg in test [1] (other dosage/kg: 0.1 mg) turned out to be 48.5%. For the same compound, the inhibition in vivo at 0.3 mg/kg in test [1] (other dosage/kg: 0.3 mg) came out at 84%. Further, the inhibition in vivo at 1 mg/kg in test [1] was found to be 95%.
As to `O=c1cc(CN2CCC(c3c[nH]c4ccccc34)CC2)c2ccccc2[nH]1` [III-1, 4-[[4-(1H-indol-3-yl)-l-piperidinyl]methyl]-2(1H)-quinolinone], in test [1] (setting [4]), the inhibition in vivo at 10 mg/kg is 14.6% and the inhibition in vivo at 30 mg/kg was determined as 14.3%. Besides, in test [2], the inhibition in vivo at 3 mg/kg stood at 58.8% and the inhibition in vivo at 10 mg/kg was 73.1%.
As to `O=c1cc(-c2ccccc2)c2ccccc2n1CCCN1CCC(c2c[nH]c3ccccc23)CC1` [VII-5, 1-[3-[4-(1H-indol-3-yl)-piperidinyl]propyl]-4-phenyl-2(1H)-quinolinone], the inhibition in vivo at 10 mg/kg in test [1] (setting [3]) is 50.1%; in test [2] (10 mg/kg) it was 6.7%.
On to `Cn1c(=O)cc(CN2CCC(c3c[nH]c4ccccc34)CC2)c2ccccc21` [III-16, 4-[[4-(1H-indol-3-yl)-l-piperidinyl]methyl]-1-methyl-2(1H)-quinolinone], for which the inhibition in vivo at 10 mg/kg in test [1] (setting [4]) was found to be 2.57%; in test [2], 45.6%.
On to `O=c1cc(CCN2CCN(C(c3ccccc3)c3ccc(Cl)cc3)CC2)c2ccccc2[nH]1` (stereo not shown) [III-9], for which the inhibition in vivo at 10 mg/kg in test [1] (setting [3]) is 34.6%; in test [2] (10 mg/kg), 8.9%.
For `O=c1cc(CCN2CCN(C(c3ccccc3)c3ccccc3)CC2)c2ccccc2[nH]1` [III-7, 4-[2-[4-(diphenylmethyl)-1-piperazinyl]ethyl]-2(1H)-quinolinone] the same measures were 63.6% and 57.8%.
Take `O=c1cc(CCCN2CCC(c3c[nH]c4ccccc34)CC2)c2ccccc2[nH]1` [III-3, 4-[3-[4-(1H-indol-3-yl)-1-piperidinyl]propyl]-2(1H)-quinolinone]: the inhibition in vivo at 10 mg/kg in test [1] (setting [3]) stood at 85%; in test [2] (10 mg/kg) it was 69.1%. Moreover, the figures for the inhibition in vivo at 1 mg/kg in test [1] and in test [2] (other dosage/kg: 1 mg) were 25.4% and 21.3%, respectively. In addition, the inhibition in vivo at 3 mg/kg in test [1] (other dosage/kg: 3 mg) worked out at 88.7%; in test [2] (other dosage/kg: 3 mg), 25.8%. Also, the inhibition in vivo at 30 mg/kg in test [2] (other dosage/kg: 30 mg) was 96.1%.

These data come from patent US5457099A, “Carbostyril derivatives and antiallergic agent” (Sawai Pharmaceutical Co., Ltd., priority 1992, dated 1995).
